According to patent publication US20240018102A1, “COMPOUNDS AND COMPOSITIONS FOR TREATING CONDITIONS ASSOCIATED WITH LPA RECEPTOR ACTIVITY” (Lhotse Bio, Inc., priority 2020, published 2024):
pIC50: −log10 of the molar value.

These molecules were tested against T1, human LPA1 (Homo sapiens, UniProt Q92633) (assay: In vitro LPA1 functional antagonist assay (calcium mobilization, FLIPR)). Settings: CHO-K1 cells overexpressing human LPA1; Oleoyl LPA challenge; calcium mobilization on FLIPR Tetra.
T1 construct: expressed in transfected cells; host or cells: CHO-K1
T1 sequence (Q92633 whole entry): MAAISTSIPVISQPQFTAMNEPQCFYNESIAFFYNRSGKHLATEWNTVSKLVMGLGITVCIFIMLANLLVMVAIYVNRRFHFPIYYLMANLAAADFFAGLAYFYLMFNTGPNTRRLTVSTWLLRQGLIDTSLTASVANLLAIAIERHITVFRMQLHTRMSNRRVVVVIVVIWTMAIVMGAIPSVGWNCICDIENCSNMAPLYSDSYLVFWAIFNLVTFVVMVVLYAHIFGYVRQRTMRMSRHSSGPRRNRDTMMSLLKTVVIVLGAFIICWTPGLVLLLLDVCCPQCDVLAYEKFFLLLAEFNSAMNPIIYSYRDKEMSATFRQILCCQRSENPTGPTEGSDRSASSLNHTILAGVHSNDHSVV
Format: cell-based
Procedure: In Vitro LPA1 Functional Antagonist Assay
CHO-K1 cells overexpressing human LPA1 were seeded in a total volume of 20 μL into black-walled, clear-bottom, Poly-D-lysine coated 384-well microplates and incubated at 37° C. for the appropriate time prior to testing. Assays were performed in 1× Dye Loading Buffer consisting of 1× Dye, 1× Additive A and 2.5 mM Probenecid in HBSS/20 mM Hepes. Probenicid was prepared fresh. Cells were loaded with dye prior to testing. Media was aspirated from cells and replaced with […] Dye Loading Buffer. Cells were incubated for 30-60 minutes at 37° C. After dye loading, cells were removed from the incubator and 10 μL 3× test compound was added. Cells were incubated for 30 minutes at room temperature in the dark to equilibrate plate temperature followed by Oleoyl LPA challenge at the 0.018 M. Compound antagonist activity was measured on a FLIPR Tetra (MDS). Calcium mobilization was monitored for 2 minutes and 10 μL Oleoyl LPA in HBSS/20 mM Hepes was added to the cells 5 seconds into the assay. Compound activity was analyzed using CBIS data analysis suite (ChemInnovation, CA). Percentage inhibition is calculated using the following formula:
% Inhibition=100%×(1−(mean RFU of test sample−mean RFU of vehicle control)/(mean RFU of LPA control−mean RFU of vehicle control)).

Point of comparison: `COc1cc([C@@H](O)[C@H](Cn2cc3cccc(C(=O)O)c3n2)OC2CCCC2)cc(OC)c1C` [Compound 108a, 2-((2S,3R)-2-(cyclopentyloxy)-3-(3,5-dimethoxy-4-methylphenyl)-3-hydroxypropyl)-2H-indazole-7-carboxylic acid], pIC50 8.52. Against it:
- COc1cc([C@@H](O)[C@H](Cc2nc3cc(C(=O)O)ccc3[nH]2)OCC2CCC2)cc(OC)c1C [Compound 131a, 2-((2S,3R)-2-(cyclobutylmethoxy)-3-(3,5-dimethoxy-4-methylphenyl)-3-hydroxypropyl)-1H-benzo[d]imidazole-5-carboxylic acid] — lower, < 5.00
- COC(=O)c1cn(C[C@H](OC2CCCC2)[C@H](O)c2cc(OC)c(C)c(OC)c2)cc1CC(=O)O [Compound 102a, 2-(1-((2S,3R)-2-(cyclopentyloxy)-3-(3,5-dimethoxy-4-methylphenyl)-3-hydroxypropyl)-4-(methoxycarbonyl)-1H-pyrrol-3-yl)acetic acid] — 0.68 log units lower, 7.84
- COc1cc([C@@H](O)C(Cn2cc3cccc(C(=O)O)c3n2)OCCc2ccccc2)cc(OC)c1C (stereo in doubt) [Compound 105a, 2-((2R,3R)-3-(3,5-dimethoxy-4-methylphenyl)-3-hydroxy-2-phenethoxypropyl)-2H-indazole-7-carboxylic acid] — within 0.2 log units, 8.47
- COc1cc([C@@H](O)[C@H](Cn2cc3cc(Cl)cc(C(=O)O)c3n2)OC2CCCC2)cc(OC)c1C [Compound 144] — within 0.2 log units, 8.69
- COc1cc([C@@H](O)[C@H](Cc2nc3cc(CC(=O)O)ccc3[nH]2)OC2CCCC2)cc(OC)c1C [Compound 111a, 2-(2-((2S,3R)-2-(cyclopentyloxy)-3-(3,5-dimethoxy-4-methylphenyl)-3-hydroxypropyl)-1H-benzo[d]imidazol-5-yl)acetic acid] — lower, < 5.00
- Cc1ccc([C@@H](O)[C@H](Cn2cc3cccc(C(=O)O)c3n2)OC2CCCC2)cn1 [Compound 127a] — lower, < 5.00
- COc1cc([C@H](O)[C@H](Cn2cc3cccc(C(=O)O)c3n2)OC2CCCC2)ccc1F [Compound 138] — lower, < 5.00
- COc1cc([C@@H](O)[C@H](Cc2ccc(CC(=O)O)cn2)OCCc2ccccc2)cc(OC)c1C [Compound 106a, 2-(6-((2S,3R)-3-(3,5-dimethoxy-4-methylphenyl)-3-hydroxy-2-phenethoxypropyl)pyridin-3-yl)acetic acid] — 2.13 log units lower, 6.39
- COc1cc([C@H](O)[C@H](Cn2cc3cccc(C(=O)O)c3n2)OCCc2ccccc2)cc(OC)c1C [Compound 105b, 2-((2S,3S)-3-(3,5-dimethoxy-4-methylphenyl)-3-hydroxy-2-phenethoxypropyl)-2H-indazole-7-carboxylic acid] — 1.21 log units lower, 7.31
- CCOc1cc([C@@H](O)[C@H](Cn2cc3cccc(C(=O)O)c3n2)OC2CCCC2)ccc1C [Compound 141] — 1.81 log units lower, 6.71
- COc1cc([C@@H](O)[C@H](Cn2cc3cccc(C(=O)O)c3n2)OC(C)C)cc(OC)c1C [Compound 145] — 1.38 log units lower, 7.14
- COC(=O)c1cn(C[C@H](OCCc2ccccc2)[C@H](O)c2cc(OC)c(C)c(OC)c2)cc1CC(=O)O [Compound 104a, 2-(1-((2S,3R)-3-(3,5-dimethoxy-4-methylphenyl)-3-hydroxy-2-phenethoxypropyl)-4-(methoxycarbonyl)-1H-pyrrol-3-yl)acetic acid] — 0.24 log units lower, 8.28
- COc1cc(C(O)C(Cn2ncc3cccc(C(=O)O)c32)OCCc2ccccc2)cc(OC)c1C (centres unmarked) [Compound 107, 1-(3-(3,5-dimethoxy-4-methylphenyl)-3-hydroxy-2-phenethoxypropyl)-1H-indazole-7-carboxylic acid] — lower, < 5.00
- COc1cc([C@@H](O)[C@H](Cn2cc3cccc(C(=O)O)c3n2)OC2Cc3ccccc3C2)cc(OC)c1C [Compound 113a, 2-((2S, 3R)-2-((2,3-dihydro-1H-inden-2-yl)oxy)-3-(3,5-dimethoxy-4-methylphenyl)-3-hydroxypropyl)-2H-indazole-7-carboxylic acid] — within 0.2 log units, 8.43
- CC#CCCO[C@@H](Cn1cc(CC(=O)O)c(C(=O)OC)c1)[C@H](O)c1cc(OC)c(C)c(OC)c1 [Compound 101a, 2-(1-((2S,3R)-3-(3,5-dimethoxy-4-methylphenyl)-3-hydroxy-2-(pent-3-yn-1-yloxy)propyl)-4-(methoxycarbonyl)-1H-pyrrol-3-yl)acetic acid] — 1.85 log units lower, 6.67
- COc1cc([C@@H](O)[C@H](Cc2nc(CC(=O)O)cs2)OC2Cc3ccccc3C2)cc(OC)c1C [Compound 129a, 2-(2-((2S,3R)-2-((2,3-dihydro-1H-inden-2-yl)oxy)-3-(3,5-dimethoxy-4-methylphenyl)-3-hydroxypropyl)thiazol-4-yl)acetic acid] — within 0.2 log units, 8.47
